Measurements from patent publication US20140045776A1, “METHOD FOR INCREASING THE SHELF LIFE OF FOOD PRODUCTS” (GALACTIC S.A., priority 2011, published 2014).

Tested on: aerobic bacteria
Experiment: Shelf life of minced meat stored at 4° C. (total number of aerobic bacteria)
Assay type: cell-based
Protocol: The usual formulation of a minced meat was prepared with the following ingredients:
Preservatives were added to this basic formulation, the maximum percentage being 4% (of a fermentate having a main-salt concentration of 40%) compared with the whole of the meat-based food product.
The minced meats are prepared according to the following procedure:
a) Preparing of the meat: the meat and fat are cut into small pieces and minced using a mincer having a 4 mm mincing grille. The meat, fat and other ingredients are then disposed by means of a mixer of the Kenwood type having a type K stirring blade. Operate the stirring for 30 seconds (minimum power).
b) Sampling: the product thus obtained is divided into 100 g samples and placed in plastic bags.
c) Storage: the products obtained are packaged in stretch film and stored at a temperature of 4° C.±1° C. for 10 days.
Twice a week, the pH, the activity of the water (Aw) and total number of aerobic bacteria were evaluated on the samples.
The shelf life of the product prepared without a preservative (reference) was compared with that of the product containing standard potassium lactate—Galoflow PL (Galactic SA) and that of the product containing the fermentate obtained by sugar fermentation by Bacillus coagulans spp. […] The results are set out in graph 1. […]

## CC(O)C(=O)[O-].[K+] (centres unmarked) [potassium lactate]
Example 2, minced meat, each at a concentration not impacting on the taste (0.05% potassium acetate, 2% potassium lactate), graph 2
  preservative effect on the meat matrix: preservative effect superior to that of potassium acetate
Example 3, minced meat, potassium lactate with main-salt concentration 60% at various concentrations, 4° C., graph 3
  effect on shelf life of the product: increases the shelf life of the product
